In patent publication EP2787003A1, “Antimicrobial peptide produced by marine sponge-derived Bacillus subtilis” (priority 2013, dated 2014):

Experiments:
[1] = test system: protease mixture from Streptomyces griseus; assay: Susceptibility to proteolytic enzymes, bioactivity by spot on lawn assay; conditions: Streptomyces griseus protease 1 mg ml^-1, 37 °C, 1 h; indicator L. monocytogenes
L. monocytogenes = assay: Mode of action: growth of the indicator in 96 well plates (optical density, cfu); format: cell-based, Listeria monocytogenes EGDe
Method: Initially 100 µl aliquots of a two-fold serial dilution of the MB 12h cultures CFS, ASCE and the purified peptide (approx. 150 µg ml^-1), were applied to individual wells on a 96 flat bottom multiple well plate (Sarstedt). An overnight culture of the indicator strain was diluted to an OD595 of 0.05 and 100 µl were applied to each of the wells containing the bioactive peptide. The plate was incubated at 37 °C, with agitation (200 rpm) and the optical density (595 nm) was monitored hourly. Wells where the indicator was added to water only were used as negative controls. Subsequently, 100 µl of indicator overnight cultures diluted to an OD595 of 0.05 were applied to individual wells on a 96 well plate and allowed to grow to an OD595 of 0.5-0.6. 100 µl of a two-fold serial dilutions of the CFS, the respective ASCE and purified peptide, or water, were then applied to the different wells and growth continued to be monitored hourly. At the different time points samples were taken and the number of cfu determined by plating dilutions onto appropriate agar plates.

VRE = assay: Spot on lawn assay; format: cell-based, VRE EC725; design: key: +, clear halo of growth inhibition; ++: multiple +, increased activity as assessed visually by the increased diameter of the inhibition zone; +++: multiple +, increased activity as assessed visually by the increased diameter of the inhibition zone; ++++: multiple +, increased activity as assessed visually by the increased diameter of the inhibition zone; +++++: multiple +, increased activity as assessed visually by the increased diameter of the inhibition zone; -, no inhibition; conditions: indicator VRE

C=C1NC(=O)[C@@H]2CSC[C@@H](NC(=O)[C@@H]3CS[C@@H](C)[C@H]4NC(=O)[C@H](Cc5ccccc5)NC(=O)[C@H](NC(=O)[C@H](CCCNC(=N)N)NC(=O)[C@@H]5CSC[C@@H](NC(=O)[C@H](CCC(N)=O)NC(=O)[C@@H](NC(=O)[C@@H](NC(=O)/C(=C/C)NC(=O)[C@H](CCCCN)NC(=O)CNC(=O)[C@@H](NC(=O)/C(=C/C)NC(=O)[C@H](C)NC(=O)[C@H](Cc6c[nH]c7ccccc67)NC(=O)C(=O)CC)[C@@H](C)CC)[C@@H](C)CC)C(C)C)C(=O)N[C@@H](C(C)C)C(=O)N[C@@H](CCCCN)C(=O)N[C@@H](CCCCN)C(=O)N5)[C@H](C)SC[C@H](NC4=O)C(=O)NCC(=O)N3)C(=O)N[C@@H](CC(C)C)C(=O)NCC(=O)N[C@H](CSC[C@@H](C(=O)N[C@@H](CC(N)=O)C(=O)O)NC(=O)[C@H](CC(N)=O)NC1=O)C(=O)N2 [Subtilomycin]
Antimicrobial activity after proteolytic treatment [1]: complete loss of activity
Nature of the inhibitory activity (mode of action) (L. monocytogenes; L. monocytogenes): bacteriolytic action
Effect on growth of the indicator (L. monocytogenes; L. monocytogenes grown in presence of sample from the beginning of growth (T0), samples from 12 h MB cultures): completely abolish growth
Antimicrobial activity, spot on lawn assay (VRE): -
